The assay concerns CD2F1 mice, L1210 leukemia ip, survival T/C. Kind of assay: NCI In Vivo Anticancer Drug Screen. Data for tumor model L1210 Leukemia (intraperitoneal) in CD2F1 (CDF1) mice. The settings on record: higher = longer survival. An outline of the steps:
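Activity against a transplanted murine tumor was judged by comparing the compound group with a vehicle group. The outcome in the treated animals was divided by that in the controls.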

Setting [1] is: endpoint: mean survival time, dose: 100.0 mg/kg/injection, schedule: Q01DX009 (ip), vehicle: saline with Tween-80.
Where [2] appears, read: endpoint: mean survival time, dose: 100.0 mg/kg/injection, schedule: Q04DX003 (ip), vehicle: saline with Tween-80.
The mark [3] stands for this setting: endpoint: mean survival time, dose: 200.0 mg/kg/injection, schedule: Q01DX009 (ip), vehicle: saline with Tween-80.
[4] abbreviates: endpoint: mean survival time, dose: 200.0 mg/kg/injection, schedule: Q04DX003 (ip), vehicle: saline with Tween-80.
Where [5] appears, read: endpoint: mean survival time, dose: 400.0 mg/kg/injection, schedule: Q04DX003 (ip), vehicle: saline with Tween-80.
Setting [6] is: endpoint: mean survival time, dose: 100.0 mg/kg/injection, schedule: Q04DX002 (ip), vehicle: saline with Tween-80.
[7] abbreviates: endpoint: mean survival time, dose: 200.0 mg/kg/injection, schedule: Q04DX002 (ip), vehicle: saline with Tween-80.
Setting [8] is: endpoint: mean survival time, dose: 400.0 mg/kg/injection, schedule: Q04DX002 (ip), vehicle: saline with Tween-80.
[9] abbreviates: endpoint: mean survival time, dose: 400.0 mg/kg/injection, schedule: Q01DX009 (ip), vehicle: saline with Tween-80.
The mark [10] stands for this setting: endpoint: mean survival time, dose: 100.0 mg/kg/injection, schedule: Q04DX003 (ip), vehicle: saline.
The mark [11] stands for this setting: endpoint: mean survival time, dose: 200.0 mg/kg/injection, schedule: Q04DX003 (ip), vehicle: saline.
Setting [12] is: endpoint: mean survival time, dose: 400.0 mg/kg/injection, schedule: Q04DX003 (ip), vehicle: saline.

SMILES strings stand for the structures. Values joined by “and” are separate entries in the source; they are usually repeats but may differ in a detail not shown here. Equal values may be shown once. Toxic doses and inconclusive results are not listed.

Turning to `O=C1NC2COC3COc4ccccc4OC3C2N1Cc1ccccc1` (stereo not given), the T/C is, setting by setting: (endpoint: mean survival time, dose: 75.0 mg/kg/injection, schedule: Q01DX001 (ip), vehicle: saline with Tween-80) 93 % of control; (endpoint: mean survival time, dose: 150.0 mg/kg/injection, schedule: Q01DX001 (ip), vehicle: saline with Tween-80) 95 % of control; (endpoint: mean survival time, dose: 300.0 mg/kg/injection, schedule: Q01DX001 (ip), vehicle: saline with Tween-80) 93 % of control.
On to `COC(C(=O)C(O)C(C)O)C1CC2C=C3C=C(OC4CC(OC5CC(O)C(OC)C(C)O5)C(OC(C)=O)C(C)O4)C(C)C(=O)C3=C(O)C2=C(O)C1OC1CC(OC2CC(OC3CC(C)(O)C(O)C(C)O3)C(O)C(C)O2)C(O)C(C)O1` (stereo not given), for which the T/C (endpoint: mean survival time, dose: 0.25 mg/kg/injection, schedule: Q01DX009 (ip), vehicle: saline with Tween-80) was 92 % of control and 101 % of control and 104 % of control; the T/C (endpoint: mean survival time, dose: 0.5 mg/kg/injection, schedule: Q01DX009 (ip), vehicle: saline with Tween-80) was 100 % of control and 101 % of control (2×); the T/C (endpoint: mean survival time, dose: 0.5 mg/kg/injection, schedule: Q01DX009 (ip), vehicle: saline) is 124 % of control; the T/C (endpoint: mean survival time, dose: 1.0 mg/kg/injection, schedule: Q01DX009 (ip), vehicle: saline with Tween-80) was 101 % of control and 102 % of control; the T/C (endpoint: mean survival time, dose: 1.0 mg/kg/injection, schedule: Q01DX009 (ip), vehicle: saline) is 98 % of control; the T/C (endpoint: mean survival time, dose: 2.0 mg/kg/injection, schedule: Q01DX009 (ip), vehicle: saline with Tween-80) is 121 % of control and 108 % of control. In addition, the T/C was 115 % of control (endpoint: mean survival time, dose: 4.0 mg/kg/injection, schedule: Q01DX009 (ip), vehicle: saline); 189 % of control (endpoint: mean survival time, dose: 8.0 mg/kg/injection, schedule: Q01DX009 (ip), vehicle: saline with Tween-80); 124 % of control (endpoint: mean survival time, dose: 8.0 mg/kg/injection, schedule: Q01DX009 (ip), vehicle: saline).
For `CC(C)[C@](O)(C(=O)OCC1=CCN2CC[C@@H](O)[C@@H]12)[C@H](C)O`, the T/C by setting is: (endpoint: median survival time, dose: 12.5 mg/kg/injection, schedule: Q01DX009 (ip), vehicle: water) 103 % of control; (endpoint: median survival time, dose: 25.0 mg/kg/injection, schedule: Q01DX009 (ip), vehicle: water) 100 % of control; (endpoint: median survival time, dose: 50.0 mg/kg/injection, schedule: Q01DX009 (ip), vehicle: water) 98 % of control; (endpoint: median survival time, dose: 100.0 mg/kg/injection, schedule: Q01DX009 (ip), vehicle: water) 122 % of control; (endpoint: median survival time, dose: 200.0 mg/kg/injection, schedule: Q01DX009 (ip), vehicle: water) 112 % of control; (endpoint: median survival time, dose: 400.0 mg/kg/injection, schedule: Q01DX009 (ip), vehicle: water) 112 % of control.
`N#CC(c1ccccc1)C(CC(=O)c1ccccc1)c1ccccc1` (stereo not given): the T/C runs as follows: under setting [1], 88 % of control; under setting [2], 100 % of control; under setting [3], 88 % of control; under setting [4], 96 % of control; under setting [5], 103 % of control.
Turning to `O=C1C=C(Nc2ccc([N+](=O)[O-])cc2)c2ccccc2C1=O`, the T/C was 95 % of control (endpoint: mean survival time, dose: 75.0 mg/kg/injection, schedule: Q01DX001 (ip), vehicle: saline) and 91 % of control (endpoint: mean survival time, dose: 150.0 mg/kg/injection, schedule: Q01DX001 (ip), vehicle: saline).
With `CC(=O)Nc1ccc(/C=C2\N=C(c3cccc(Cl)c3)OC2=O)cc1`, the T/C by setting is: under setting [6], 90 % of control; under setting [7], 98 % of control; under setting [8], 105 % of control.
As for `CC1=NNC(=O)C1CCO` (stereo not given), the T/C runs as follows: (endpoint: median survival time, dose: 25.0 mg/kg/injection, schedule: Q01DX009 (ip), vehicle: Klucel (hydroxypropylcellulose) (HPC)) 103 % of control; (endpoint: median survival time, dose: 50.0 mg/kg/injection, schedule: Q01DX009 (ip), vehicle: Klucel (hydroxypropylcellulose) (HPC)) 100 % of control; (endpoint: median survival time, dose: 100.0 mg/kg/injection, schedule: Q01DX009 (ip), vehicle: Klucel (hydroxypropylcellulose) (HPC)) 98 % of control; (endpoint: median survival time, dose: 200.0 mg/kg/injection, schedule: Q01DX009 (ip), vehicle: Klucel (hydroxypropylcellulose) (HPC)) 102 % of control; (endpoint: median survival time, dose: 400.0 mg/kg/injection, schedule: Q01DX009 (ip), vehicle: Klucel (hydroxypropylcellulose) (HPC)) 103 % of control; (endpoint: median survival time, dose: 800.0 mg/kg/injection, schedule: Q01DX009 (ip), vehicle: Klucel (hydroxypropylcellulose) (HPC)) 104 % of control.
Regarding `N#C/C(=C\c1c(O)ccc2ccccc12)c1ccc([N+](=O)[O-])cc1`, the T/C (endpoint: mean survival time, dose: 66.0 mg/kg/injection, schedule: Q01DX009 (ip), vehicle: saline with Tween-80) was 88 % of control; the T/C under setting [1] is 91 % of control and 92 % of control; the T/C under setting [2] is 91 % of control; the T/C (endpoint: mean survival time, dose: 150.0 mg/kg/injection, schedule: Q01DX009 (ip), vehicle: saline with Tween-80) is 100 % of control; the T/C under setting [4] is 94 % of control; the T/C under setting [5] was 91 % of control.
Take `C(CC1CCNCC1)CC1CCNCC1`: the T/C is 95 % of control (endpoint: mean survival time, dose: 25.0 mg/kg/injection, schedule: Q04DX003 (ip), vehicle: saline with Tween-80) and 87 % of control (endpoint: mean survival time, dose: 50.0 mg/kg/injection, schedule: Q04DX003 (ip), vehicle: saline with Tween-80).
In the case of `CN(C)c1ccc(/C=N/NC(=O)CNC(=O)Nc2cccc(C(F)(F)F)c2)c(Cl)c1`, the T/C runs as follows: (endpoint: mean survival time, dose: 50.0 mg/kg/injection, schedule: Q01DX009 (ip), vehicle: saline with Tween-80) 88 % of control; under setting [1], 88 % of control; under setting [3], 88 % of control.
For the molecule `Nc1ccc(I)cc1F`, the T/C is 100 % of control under setting [2], 104 % of control under setting [4] and 100 % of control under setting [5].
As for `CCOC(=O)CC(=O)c1ccccc1SC`, the T/C under setting [1] is 98 % of control, the T/C under setting [3] is 96 % of control and the T/C under setting [9] was 96 % of control.
As to `c1cc[n+](CC[n+]2ccccc2)cc1`, the T/C is 102 % of control under setting [10], 100 % of control under setting [11] and 111 % of control under setting [12].
As to `O=C(O)C1CC2C(=O)CCCCCCC2C1O` (stereo not given), the T/C was 93 % of control (endpoint: mean survival time, dose: 100.0 mg/kg/injection, schedule: Q01DX001 (ip), vehicle: saline with Tween-80); 98 % of control under setting [1]; 98 % of control (endpoint: mean survival time, dose: 200.0 mg/kg/injection, schedule: Q01DX001 (ip), vehicle: saline with Tween-80); 93 % of control under setting [3]; 91 % of control (endpoint: mean survival time, dose: 400.0 mg/kg/injection, schedule: Q01DX001 (ip), vehicle: saline with Tween-80); 96 % of control under setting [9].
For the molecule `O=c1ccn(C2CC(O)C(COC(c3ccccc3)(c3ccccc3)c3ccccc3)O2)c(=O)[nH]1` (stereo not given), the T/C runs as follows: (endpoint: median survival time, dose: 12.5 mg/kg/injection, schedule: Q01DX005 (ip), vehicle: saline with Tween-80) 98 % of control and 97 % of control; (endpoint: median survival time, dose: 25.0 mg/kg/injection, schedule: Q01DX005 (ip), vehicle: saline with Tween-80) 99 % of control and 92 % of control; (endpoint: median survival time, dose: 50.0 mg/kg/injection, schedule: Q01DX005 (ip), vehicle: saline with Tween-80) 99 % of control and 96 % of control; (endpoint: median survival time, dose: 100.0 mg/kg/injection, schedule: Q01DX005 (ip), vehicle: saline with Tween-80) 100 % of control and 96 % of control; (endpoint: median survival time, dose: 200.0 mg/kg/injection, schedule: Q01DX005 (ip), vehicle: saline with Tween-80) 100 % of control and 98 % of control.
As to `Cc1cccc(/C=N\N=C\c2cccc(C)n2)n1`, the T/C under setting [1] is 96 % of control; the T/C under setting [2] was 95 % of control; the T/C under setting [3] was 90 % of control; the T/C under setting [4] was 91 % of control; the T/C under setting [9] was 98 % of control; the T/C under setting [5] was 107 % of control.
As to `CCOC(=O)c1c(-c2ccccc2)[nH]c(C)cc1=O`, the T/C is, setting by setting: under setting [6], 100 % of control; under setting [7], 100 % of control; under setting [8], 100 % of control.
Consider `Nc1ccc(S(=O)(=O)O)c2ccccc12`, for which the T/C runs as follows: (endpoint: mean survival time, dose: 50.0 mg/kg/injection, schedule: Q01DX009 (ip), vehicle: Klucel (hydroxypropylcellulose) (HPC)) 86 % of control; (endpoint: mean survival time, dose: 100.0 mg/kg/injection, schedule: Q01DX009 (ip), vehicle: Klucel (hydroxypropylcellulose) (HPC)) 104 % of control; under setting [10], 97 % of control; (endpoint: mean survival time, dose: 200.0 mg/kg/injection, schedule: Q01DX009 (ip), vehicle: Klucel (hydroxypropylcellulose) (HPC)) 104 % of control; under setting [11], 101 % of control; under setting [12], 103 % of control.

The record behind these values is PubChem BioAssay AID256 (DTP/NCI, 2004).
